The assay addresses T1, HDAC6 (Homo sapiens, UniProt Q9UBN7).
T1 sequence (Q9UBN7 1-1215): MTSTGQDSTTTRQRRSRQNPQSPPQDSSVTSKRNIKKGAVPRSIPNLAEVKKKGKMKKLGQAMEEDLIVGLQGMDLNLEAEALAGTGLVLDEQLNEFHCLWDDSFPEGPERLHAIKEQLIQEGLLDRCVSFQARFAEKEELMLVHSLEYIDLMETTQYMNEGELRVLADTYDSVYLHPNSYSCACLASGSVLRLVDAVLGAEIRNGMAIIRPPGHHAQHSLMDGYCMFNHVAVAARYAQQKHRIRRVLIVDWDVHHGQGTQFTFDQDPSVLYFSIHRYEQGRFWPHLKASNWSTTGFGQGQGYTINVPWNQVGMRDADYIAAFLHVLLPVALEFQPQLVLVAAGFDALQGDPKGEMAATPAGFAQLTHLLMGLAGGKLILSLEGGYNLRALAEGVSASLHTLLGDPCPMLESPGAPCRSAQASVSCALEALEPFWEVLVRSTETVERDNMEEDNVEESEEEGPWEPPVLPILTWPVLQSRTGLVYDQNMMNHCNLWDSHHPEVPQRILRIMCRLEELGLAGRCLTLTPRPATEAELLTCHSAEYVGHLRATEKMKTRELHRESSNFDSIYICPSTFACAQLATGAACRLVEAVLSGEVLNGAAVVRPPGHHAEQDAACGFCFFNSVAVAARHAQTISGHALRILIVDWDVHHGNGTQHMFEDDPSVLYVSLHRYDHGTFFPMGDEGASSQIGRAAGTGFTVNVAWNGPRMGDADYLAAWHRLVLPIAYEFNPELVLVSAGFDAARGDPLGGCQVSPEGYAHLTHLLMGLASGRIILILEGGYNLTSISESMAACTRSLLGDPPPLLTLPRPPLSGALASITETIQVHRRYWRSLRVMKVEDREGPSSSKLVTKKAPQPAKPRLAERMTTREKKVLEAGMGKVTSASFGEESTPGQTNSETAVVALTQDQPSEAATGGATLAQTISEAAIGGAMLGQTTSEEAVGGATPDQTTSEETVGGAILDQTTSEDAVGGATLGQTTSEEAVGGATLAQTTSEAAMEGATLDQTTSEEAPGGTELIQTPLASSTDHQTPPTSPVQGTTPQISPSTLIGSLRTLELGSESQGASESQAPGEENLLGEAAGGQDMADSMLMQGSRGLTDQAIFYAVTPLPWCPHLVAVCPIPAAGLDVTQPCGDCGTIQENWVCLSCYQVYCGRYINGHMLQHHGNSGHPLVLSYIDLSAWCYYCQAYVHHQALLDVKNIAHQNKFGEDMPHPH
Kind of assay: In vitro histone deacetylase assay: enzymatic HDAC6 electrophoretic mobility shift assay. Type of assay: biochemical. Conditions: full length human recombinant HDAC6, 1 nM enzyme, 2 μM peptide substrate RHKK(Ac)-NH2, 25° C.; read-out: Inhibitory Concentration (IC50) Values for Representative Compounds against HDAC6, Activity Range. Background: In EMSA bound probe runs differently from free probe, usually more slowly.

SMILES strings stand for the structures. A value given as a limit tells only on which side of the number the result lay.

Regarding `C[C@H]1COc2cc(C(=O)NO)ccc2CN1c1cccc(C(F)(F)F)c1` [(S)-N-hydroxy-3-methyl-4-(3-(trifluoromethyl)phenyl)-2,3,4,5-tetrahydrobenzo[f][1,4]oxazepine-8-carboxamide], the IC50 fell in the range of 0.1 to 0.5 µM.
On to `COc1ccc(OC(=O)N2CCOc3cc(C(=O)NO)ccc3C2)cc1`, for which the IC50 was ≤ 0.1 µM.

The values above are taken from patent publication US11279681B2, “3-alkyl bicyclic [4,5,0] hydroxamic acids as HDAC inhibitors” (Valo Health, Inc., priority 2015, dated 2022).
